How the values were obtained:
oat, wild [1] = assay: Test C postemergence; type: in vivo, Avena fatua; details: 10 days, 0 to 100 scale (0 no effect, 100 complete control)
In short: (§1)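 Visual injury ratings on a 0–100 scale (100 = complete control) were made against untreated controls 10 days after treatment in the greenhouse. Compounds, formulated with surfactant in non-phytotoxic solvent, were sprayed on soil preemergence or onto one- to two-leaf plants 2–10 cm tall postemergence.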

ragweed [2] = assay: Test C postemergence; type: in vivo, Ambrosia artemisiifolia; details: 10 days, 0 to 100 scale (0 no effect, 100 complete control)
In short: as §1

ryegrass, Italian [3] = assay: Test C postemergence; type: in vivo, Lolium multiflorum; details: 10 days, 0 to 100 scale (0 no effect, 100 complete control)
In short: as §1

blackgrass [4] = assay: Test C postemergence; type: in vivo, Alopecurus myosuroides; details: 10 days, 0 to 100 scale (0 no effect, 100 complete control)
In short: as §1

soybean [5] = assay: Test C postemergence; type: in vivo, Glycine max; details: 10 days, 0 to 100 scale (0 no effect, 100 complete control)
In short: as §1

blackgrass [6] = assay: Test C preemergence; type: in vivo, Alopecurus myosuroides; details: preemergence, 0 to 100 scale (0 no effect, 100 complete control)
In short: as §1

corn [7] = assay: Test C postemergence; type: in vivo, Zea mays; details: 10 days, 0 to 100 scale (0 no effect, 100 complete control)
In short: as §1

oat, wild [8] = assay: Test C preemergence; type: in vivo, Avena fatua; details: preemergence, 0 to 100 scale (0 no effect, 100 complete control)
In short: as §1

galium = assay: Test C postemergence; type: in vivo, Galium aparine; details: 10 days, 0 to 100 scale (0 no effect, 100 complete control)
In short: as §1

kochia [9] = assay: Test C preemergence; type: in vivo, Bassia scoparia; details: preemergence, 0 to 100 scale (0 no effect, 100 complete control)
In short: as §1

pigweed, palmer [10] = assay: Test C postemergence; type: in vivo, Amaranthus palmeri; details: 10 days, 0 to 100 scale (0 no effect, 100 complete control)
In short: as §1

ducksalad = assay: Test D flooded paddy test; type: in vivo, Heteranthera limosa; details: 250 g ai/ha, applied to paddy water, visual rating after 13 to 14 days, scale 0 to 100 (0 no effect, 100 complete control)
In short: (§2)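 Plants grown to the 2-leaf stage; pots flooded to 3 cm above soil at treatment and held at that depth throughout. Test compounds applied directly to the paddy water. After 13 to 14 days in a greenhouse, response was rated visually versus controls on a 0 (no effect) to 100 (complete control) scale.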

sedge, umbrella = assay: Test D flooded paddy test; type: in vivo, Cyperus difformis; details: 250 g ai/ha, applied to paddy water, visual rating after 13 to 14 days, scale 0 to 100 (0 no effect, 100 complete control)
In short: as §2

corn [11] = assay: Test C preemergence; type: in vivo, Zea mays; details: preemergence, 0 to 100 scale (0 no effect, 100 complete control)
In short: as §1

barnyardgrass [12] = assay: Test D flooded paddy test; type: in vivo, Echinochloa crus-galli; details: 250 g ai/ha, applied to paddy water, visual rating after 13 to 14 days, scale 0 to 100 (0 no effect, 100 complete control)
In short: as §2

wheat [13] = assay: Test C postemergence; type: in vivo, Triticum aestivum; details: 10 days, 0 to 100 scale (0 no effect, 100 complete control)
In short: as §1

rice = assay: Test D flooded paddy test; type: in vivo, Oryza sativa; details: 250 g ai/ha, applied to paddy water, visual rating after 13 to 14 days, scale 0 to 100 (0 no effect, 100 complete control)
In short: as §2

green foxtail [14] = assay: Test C postemergence; type: in vivo, Setaria viridis; details: 10 days, 0 to 100 scale (0 no effect, 100 complete control)
In short: as §1

ragweed [15] = assay: Test C preemergence; type: in vivo, Ambrosia artemisiifolia; details: preemergence, 0 to 100 scale (0 no effect, 100 complete control)
In short: as §1

pigweed, palmer [16] = assay: Test C preemergence; type: in vivo, Amaranthus palmeri; details: preemergence, 0 to 100 scale (0 no effect, 100 complete control)
In short: as §1

kochia [17] = assay: Test C postemergence; type: in vivo, Bassia scoparia; details: 10 days, 0 to 100 scale (0 no effect, 100 complete control)
In short: as §1

green foxtail [18] = assay: Test C preemergence; type: in vivo, Setaria viridis; details: preemergence, 0 to 100 scale (0 no effect, 100 complete control)
In short: as §1

barnyardgrass [19] = assay: Test C postemergence; type: in vivo, Echinochloa crusgalli; details: 10 days, 0 to 100 scale (0 no effect, 100 complete control)
In short: as §1

ryegrass, Italian [20] = assay: Test C preemergence; type: in vivo, Lolium multiflorum; details: preemergence, 0 to 100 scale (0 no effect, 100 complete control)
In short: as §1

barnyardgrass [21] = assay: Test C preemergence; type: in vivo, Echinochloa crusgalli; details: preemergence, 0 to 100 scale (0 no effect, 100 complete control)
In short: as §1

horseweed = assay: Test C postemergence; type: in vivo, Erigeron canadensis; details: 10 days, 0 to 100 scale (0 no effect, 100 complete control)
In short: as §1

soybean [22] = assay: Test C preemergence; type: in vivo, Glycine max; details: preemergence, 0 to 100 scale (0 no effect, 100 complete control)
In short: as §1

wheat [23] = assay: Test C preemergence; type: in vivo, Triticum aestivum; details: preemergence, 0 to 100 scale (0 no effect, 100 complete control)
In short: as §1

## COC(=O)c1ncn(-c2ccc(C)c(C(=O)N3C[C@H](C)Oc4c(Cl)cccc43)c2)n1 [Compound 315]
oat, wild [1]; 500 g ai/ha, postemergence
  Plant response rating, Oat, Wild: 90
oat, wild [1]; Postemergence, 125 g ai/ha
  Plant response rating, Oat, Wild: 50
Ragweed [2]; 500 g ai/ha, postemergence
  Plant response rating, Ragweed: 70
Ragweed [2]; Postemergence, 125 g ai/ha
  Plant response rating, Ragweed: 70
ryegrass, Italian [3]; 500 g ai/ha, postemergence
  Plant response rating, Ryegrass, Italian: 80
ryegrass, Italian [3]; Postemergence, 125 g ai/ha
  Plant response rating, Ryegrass, Italian: 60
Blackgrass [4]; 500 g ai/ha, postemergence
  Plant response rating, Blackgrass: 90
Blackgrass [4]; Postemergence, 125 g ai/ha
  Plant response rating, Blackgrass: 70
Soybean [5]; 500 g ai/ha, postemergence
  Plant response rating, Soybean: 100
Soybean [5]; Postemergence, 125 g ai/ha
  Plant response rating, Soybean: 70
Blackgrass [6]; 500 g ai/ha
  Blackgrass plant response rating: 50
Blackgrass [6]; Test C, 125 g ai/ha
  Blackgrass plant response rating: 0
Corn [7]; 500 g ai/ha, postemergence
  Plant response rating, Corn: 40
Corn [7]; Postemergence, 125 g ai/ha
  Plant response rating, Corn: 30
oat, wild [8]; 500 g ai/ha
  Oat, Wild plant response rating: 60
oat, wild [8]; Test C, 125 g ai/ha
  Oat, Wild plant response rating: 0
galium; 500 g ai/ha, postemergence
  Plant response rating, Galium: 70
galium; Postemergence, 125 g ai/ha
  Plant response rating, Galium: 70
Kochia [9]; 500 g ai/ha
  Kochia plant response rating: 0
Kochia [9]; Test C, 125 g ai/ha
  Kochia plant response rating: 0
pigweed, palmer [10]; 500 g ai/ha, postemergence
  Plant response rating, Pigweed, Palmer: 100
pigweed, palmer [10]; Postemergence, 125 g ai/ha
  Plant response rating, Pigweed, Palmer: 80
ducksalad
  Plant response rating, Ducksalad (Flood): 85
sedge, umbrella
  Plant response rating, Sedge, Umbrella (Flood): 60
Corn [11]; 500 g ai/ha
  Corn plant response rating: 0
Corn [11]; Test C, 125 g ai/ha
  Corn plant response rating: 0
Barnyardgrass [12]
  Plant response rating, Barnyardgrass (Flood): 15
Wheat [13]; 500 g ai/ha, postemergence
  Plant response rating, Wheat: 90
Wheat [13]; Postemergence, 125 g ai/ha
  Plant response rating, Wheat: 80
rice
  Plant response rating, Rice (Flood): 10
Green foxtail [14]; 500 g ai/ha, postemergence
  Plant response rating, Foxtail, Green: 90
Green foxtail [14]; Postemergence, 125 g ai/ha
  Plant response rating, Foxtail, Green: 80
Ragweed [15]; 500 g ai/ha
  Ragweed plant response rating: 30
Ragweed [15]; Test C, 125 g ai/ha
  Ragweed plant response rating: 0
pigweed, palmer [16]; 500 g ai/ha
  Pigweed, Palmer plant response rating: 100
pigweed, palmer [16]; Test C, 125 g ai/ha
  Pigweed, Palmer plant response rating: 10
Kochia [17]; 500 g ai/ha, postemergence
  Plant response rating, Kochia: 50
Kochia [17]; Postemergence, 125 g ai/ha
  Plant response rating, Kochia: 40
Green foxtail [18]; 500 g ai/ha
  Foxtail, Green plant response rating: 90
Green foxtail [18]; Test C, 125 g ai/ha
  Foxtail, Green plant response rating: 30
Barnyardgrass [19]; 500 g ai/ha, postemergence
  Plant response rating, Barnyardgrass: 80
Barnyardgrass [19]; Postemergence, 125 g ai/ha
  Plant response rating, Barnyardgrass: 60
ryegrass, Italian [20]; 500 g ai/ha
  Ryegrass, Italian plant response rating: 90
ryegrass, Italian [20]; Test C, 125 g ai/ha
  Ryegrass, Italian plant response rating: 40
Barnyardgrass [21]; 500 g ai/ha
  Barnyardgrass plant response rating: 90
Barnyardgrass [21]; Test C, 125 g ai/ha
  Barnyardgrass plant response rating: 0
horseweed; 500 g ai/ha, postemergence
  Plant response rating, Horseweed: 30
horseweed; Postemergence, 125 g ai/ha
  Plant response rating, Horseweed: 0
Soybean [22]; 500 g ai/ha
  Soybean plant response rating: 0
Soybean [22]; Test C, 125 g ai/ha
  Soybean plant response rating: 0
Wheat [23]; 500 g ai/ha
  Wheat plant response rating: 30
Wheat [23]; Test C, 125 g ai/ha
  Wheat plant response rating: 0

Source: US20260262643A1, “HERBICIDAL BENZOXAZINES” (FMC CORPORATION, priority 2022, published 2026)
